Experiment [1] has as its target sphingosine kinase 1 (SK1) (Homo sapiens, UniProt Q9NYA1). The experiment in a line: In vitro inhibition of purified recombinant sphingosine kinase 1. The experiment is classed as biochemical. The conditions noted are these: purified recombinant enzyme.
The subject of experiment [2] is MCF7 cells. As to the kind of experiment: Endogenous ceramide level in cells after treatment. It counts as cell-based, human. The settings on record: 24 hour treatment, 0-25 μM, FIG. 7. The source says:
The administration of guanidino-sphingosines to mammalian cells at concentrations capable of inhibiting SK1 or SK2 were also found to increase the level of endogenous Cer in the cells.

The target of experiment [3] is T1, sphingosine kinase 2 (SK2) (Homo sapiens, UniProt Q9NRA0).
T1 sequence (Q9NRA0 1-654): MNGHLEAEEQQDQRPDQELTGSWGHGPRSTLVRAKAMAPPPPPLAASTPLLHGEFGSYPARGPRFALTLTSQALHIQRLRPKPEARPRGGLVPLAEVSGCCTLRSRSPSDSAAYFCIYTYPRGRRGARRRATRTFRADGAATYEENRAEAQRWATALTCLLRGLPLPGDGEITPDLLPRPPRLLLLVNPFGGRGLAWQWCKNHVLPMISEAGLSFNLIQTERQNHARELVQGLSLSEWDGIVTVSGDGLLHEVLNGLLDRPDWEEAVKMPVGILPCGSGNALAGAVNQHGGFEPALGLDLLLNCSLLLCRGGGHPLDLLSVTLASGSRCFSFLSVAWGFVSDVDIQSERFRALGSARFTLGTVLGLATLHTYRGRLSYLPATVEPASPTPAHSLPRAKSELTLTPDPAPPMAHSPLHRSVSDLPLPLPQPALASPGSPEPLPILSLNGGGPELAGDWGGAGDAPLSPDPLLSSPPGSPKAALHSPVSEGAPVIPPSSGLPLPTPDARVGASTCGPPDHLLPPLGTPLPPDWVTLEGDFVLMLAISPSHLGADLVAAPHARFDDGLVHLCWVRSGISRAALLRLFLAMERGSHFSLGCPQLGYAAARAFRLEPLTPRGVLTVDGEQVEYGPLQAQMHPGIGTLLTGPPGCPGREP
As to the kind of experiment: In vitro inhibition of purified recombinant sphingosine kinase 2. The experiment is classed as biochemical. The settings on record: purified recombinant enzyme.

The test system of experiment [4] is prostate cancer (DU145) cells over-expressing acid ceramidase. The experiment in a line: BD FALCON FLUOROBLOK migration assay. It counts as cell-based, human. The settings on record: 5 μM pretreatment overnight; 16/24 hours incubation; FIG. 8. The protocol: NT represents non-treated cells.
The presently disclosed guanidino-sphingosines were determined to be capable of inhibiting cell migration of cancer cells overexpressing acid ceramidase. The BD™ FALCON™ (Becton Dickinson and Company, Franklin Lakes, N.J., United States of America) migration assay (using FLUOROBLOK™ polyethylene terphthalate (PET) inserts (8.0 μm)) was performed with prostate cancer (DU145) cells over-expressing acid ceramidase. […] After labeling the cells with carboxyfluorescein diacetate succinimidyl ester fluorscent dye (CFMDA), the cells were seeded on the top well of BDTM FLUOROBLOK™ PET membrane collagen-coated inserts. The negative control consisted of serum free media loaded in the bottom well and 10% FCS-enriched media was used as the positive control. After 16/24 hours incubation, the plate was read from the bottom (485/530 nm) and fluorescence was quantified.

SMILES strings stand for the structures. Counter-ions that a name gives are not always drawn. Like-named read-outs stand apart in the source and are kept apart here.

Chain of sphingosine kinase 1 (SK1) (Q9NYA1 whole entry, species assumed): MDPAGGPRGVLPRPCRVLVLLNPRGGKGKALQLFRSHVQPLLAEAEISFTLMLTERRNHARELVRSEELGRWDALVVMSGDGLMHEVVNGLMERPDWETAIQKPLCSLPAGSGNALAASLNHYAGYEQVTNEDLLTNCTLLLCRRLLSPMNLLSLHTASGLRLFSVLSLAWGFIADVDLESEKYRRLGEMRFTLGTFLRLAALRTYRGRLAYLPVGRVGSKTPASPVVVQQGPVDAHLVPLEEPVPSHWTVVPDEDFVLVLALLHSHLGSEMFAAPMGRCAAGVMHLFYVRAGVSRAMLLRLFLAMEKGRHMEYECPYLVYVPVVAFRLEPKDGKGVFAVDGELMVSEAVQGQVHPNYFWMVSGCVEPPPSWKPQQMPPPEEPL

As a reminder, the IC50 is the concentration that gives 50% inhibition. On to `CCCCCCCCCCCCC/C=C/[C@@H](O)[C@H](CO)NC(=N)N` [LCL146, D-erythro-2-N-(1′-carboxamidino)-sphingosine hydrochloride], for which the IC50 in experiment [1] (read-out: In Vitro IC50 on Sphingosine Kinase 1) was 420 nM; in experiment [3] it was 740 nM. Besides, the “endogenous C16-ceramide levels” value in experiment [2] was “elevation”.
On to `CCCCCCCCCCCCC/C=C/[C@H](O)[C@@H](CO)NC(=N)N` [LCL351, L-erythro-2-N-(1′-carboxamidino)-sphingosine hydrochloride], for which, in experiment [4], the “migration rate of DU145 cells” value is listed as “decreases the migration rate”. Also, the values for the IC50 in experiment [1] (read-out: IC50 on SK1) and in experiment [3] were 40 nM and 300 nM, respectively. Also, the “endogenous C16-ceramide levels” value in experiment [2] is given as “elevation”.
